Source: patent US20250179045A1, “LPAR1 ANTAGONISTS AND USES THEREOF” (Contineum Therapeutics, Inc., priority 2021, published 2025)

Target: human LPA1 (Homo sapiens, UniProt Q92633)
Experiment: In vitro functional assay of lysophosphatidic acid receptor 1 activity (calcium flux)
Assay type: cell-based
Conditions: B103 cells stably expressing human LPA1; Fluo-4 NW calcium flux after lysophosphatidic acid (18:1) at EC80; compounds 100 pM to 10 μM; read-out: LPA1 IC50
Experimental: In vitro functional assay of lysophosphatidic acid receptor 1 activity
Primary compound plates were prepared in 100% DMSO (Sigma-Aldrich), secondary compound plates were prepared at 10× concentration in DiVEM (Invitrogen), and tertiary compound plates were prepared at 3x concentration in assay buffer containing HBSS (no Ca^+2/Mg^+2, Invitrogen) and 0.1% BSA (Sigma-Aldrich). Fluo-4 NW calcium assay dye (Invitrogen) was prepared as per manufacturer's recommendations in assay buffer. B103 cells stably expressing human LPA1(J. Chun lab, UCSD) were grown to confluency in DMEM media (Invitrogen) containing 10% FBS (ATCC), […] (Sigma-Aldrich) and […] Geneticin (Sigma-Aldrich), and detached with Accutase (Sigma-Aldrich) prior to assay. The freshly detached cells were resuspended in growth media and plated in black, clear-bottom 96-well plates (Costar) containing compound (i.e., secondary compound plate) at a density of 5×10^4 cells/well. Once plated, cells were left at room temperature for 30 minutes and then transferred to a 37° C., […] incubator for 24 hours. After 24 hours, the growth media was then removed and freshly prepared Fluo-4 NW calcium assay dye was added to cells. Compounds (i.e. tertiary compound plates) were then added back to the dye/cells, returned to the incubator for 30 minutes, and then kept at room temperature for an additional 30 minutes. Finally, lysophosphatidic acid (18:1) at the EC80 concentration was added and calcium flux measured using FlexStation 3 (Molecular Devices). Sigmoidal dose-response curves were generated by measuring […] over 45 sec and calculating the area under the curve. Dose response curves and IC50 values were generated using Prism (GraphPad). Compounds were tested at a final concentration range of 100 pM to 10 μM in 0.10% DMSO.

Sequence of human LPA1 (Q92633 whole entry): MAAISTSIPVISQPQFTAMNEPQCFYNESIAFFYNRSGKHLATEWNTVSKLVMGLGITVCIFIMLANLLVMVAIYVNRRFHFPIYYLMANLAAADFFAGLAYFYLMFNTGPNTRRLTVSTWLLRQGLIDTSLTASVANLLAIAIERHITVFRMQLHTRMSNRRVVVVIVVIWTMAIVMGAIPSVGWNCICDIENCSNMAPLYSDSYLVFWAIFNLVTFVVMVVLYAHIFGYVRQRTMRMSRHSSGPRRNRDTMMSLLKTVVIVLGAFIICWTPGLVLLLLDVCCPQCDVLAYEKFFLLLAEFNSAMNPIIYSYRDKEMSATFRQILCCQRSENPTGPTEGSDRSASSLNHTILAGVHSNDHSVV

Structure (SMILES)	IC50
COc1ccc(NC(=O)C2(c3ccccc3C(C)C)CC(Cc3nnn[nH]3)C2)c(OC(F)F)n1 (stereo not drawn) [Example 113, 3-((1H-tetrazol-5-yl)methyl)-N-(2-(difluoromethoxy)-6-methoxypyridin-3-yl)-1-(2-isopropylphenyl)cyclobutane-1-carboxamide]	< 10 nM
Cc1ccc(NC(=O)C2(c3ccccc3C(C)C)CC(N3CCC3=O)C2)c(OC(F)F)n1 (mixture of isomers) [Example 68, N-(2-(difluoromethoxy)-6-methylpyridin-3-yl)-1-(2-isopropylphenyl)-3-(2-oxoazetidin-1-yl)cyclobutane-1-carboxamide]	10 to 100 nM
COc1ccc(NC(=O)C2(c3ccccc3C(C)C)CCC(C)(O)CC2)c(OC(F)F)n1 (single isomer, unassigned) [Example 83-isomer A, N-(2-(difluoromethoxy)-6-methoxypyridin-3-yl)-4-hydroxy-1-(2-isopropylphenyl)-4-methylcyclohexane-1-carboxamide]	> 1000 nM
CC(C)c1ccccc1C1(C(=O)Nc2cccnc2OC(F)F)CC(=O)N(C)C1 (stereo not drawn) [Example 2, N-(2-(difluoromethoxy)pyridin-3-yl)-3-(2-isopropylphenyl)-1-methyl-5-oxopyrrolidine-3-carboxamide]	100 to 1000 nM
CC(=O)N(C)C1CC(C(=O)Nc2ccc(C)nc2OC(F)F)(c2ccccc2C(C)C)C1 (mixture of isomers) [Example 43, N-(2-(difluoromethoxy)-6-methylpyridin-3-yl)-1-(2-isopropylphenyl)-3-(N-methylacetamido)cyclobutane-1-carboxamide]	10 to 100 nM
Cc1ccc(NC(=O)C2(c3ccccc3C(C)C)CC(O)(C(F)(F)C(=O)O)C2)c(OC(F)F)n1 (mixture of isomers) [Example 53, 2-(3-((2-(difluoromethoxy)-6-methylpyridin-3-yl)carbamoyl)-1-hydroxy-3-(2-isopropylphenyl)cyclobutyl)-2,2-difluoroacetic acid]	< 10 nM
Cc1ccc(NC(=O)C2(c3ccccc3C(C)C)CC(S(C)(=O)=O)C2)c(OC(F)F)n1 (stereo not drawn) [Example 71, N-(2-(difluoromethoxy)-6-methylpyridin-3-yl)-1-(2-isopropylphenyl)-3-(methylsulfonyl)cyclobutane-1-carboxamide]	100 to 1000 nM
COC[C@H](C)Oc1nc(OC)ccc1NC(=O)C1(c2ccccc2C(C)C)COC1 [Example 31, (S)-3-(2-isopropylphenyl)-N-(6-methoxy-2-((1-methoxypropan-2-yl)oxy)pyridin-3-yl)oxetane-3-carboxamide]	10 to 100 nM
CC(C)c1ccccc1C1(C(=O)Nc2ncc(Cl)cc2OC(F)F)CC(O)(C(F)(F)C(=O)O)C1 (single isomer, unassigned) [Example 55-isomer A, 2-(3-((5-chloro-3-(difluoromethoxy)pyridin-2-yl)carbamoyl)-1-hydroxy-3-(2-isopropylphenyl)cyclobutyl)-2,2-difluoroacetic acid]	10 to 100 nM
Cc1ccc(NC(=O)C2(c3ncccc3C(C)C)COC2)c(OC(F)F)n1 [Example 37, N-(2-(difluoromethoxy)-6-methylpyridin-3-yl)-3-(3-isopropylpyridin-2-yl)oxetane-3-carboxamide]	100 to 1000 nM
CC(=O)N1CC2(C1)CC(C(=O)Nc1ccc(C)nc1OC(F)F)(c1ccccc1C(C)C)C2 [Example 74, 2-acetyl-N-(2-(difluoromethoxy)-6-methylpyridin-3-yl)-6-(2-isopropylphenyl)-2-azaspiro[3.3]heptane-6-carboxamide]	> 1000 nM
Cc1ccc(NC(=O)C2(c3ccccc3C(C)C)CC(NC3CC3)C2)c(OC(F)F)n1 (single isomer, unassigned) [Example 40-isomer A, 3-(cyclopropylamino)-N-(2-(difluoromethoxy)-6-methylpyridin-3-yl)-1-(2-isopropylphenyl)cyclobutane-1-carboxamide]	100 to 1000 nM
CC(C)c1ccccc1C1(C(=O)Nc2ccc(Br)cc2OC(F)F)COC1 [Example 16, N-(4-bromo-2-(difluoromethoxy)phenyl)-3-(2-isopropylphenyl)oxetane-3-carboxamide]	< 10 nM
CC(C)c1ccccc1C1(C(=O)Nc2cnc(Cl)cc2OC2CC2)COC1 [Example 32, N-(6-chloro-4-cyclopropoxypyridin-3-yl)-3-(2-isopropylphenyl)oxetane-3-carboxamide]	100 to 1000 nM
COc1ccc(NC(=O)C2(c3ccccc3C(C)C)COC2)c(OC(C)C)n1 [Example 30, N-(2-isopropoxy-6-methoxypyridin-3-yl)-3-(2-isopropylphenyl)oxetane-3-carboxamide]	10 to 100 nM
COc1ccc(NC(=O)C2(c3ccccc3C(C)C)CCC3(CC2)NC(=O)NC3=O)c(OC(F)F)n1 (mixture of isomers) [Example 86, N-(2-(difluoromethoxy)-6-methoxypyridin-3-yl)-8-(2-isopropylphenyl)-2,4-dioxo-1,3-diazaspiro[4.5]decane-8-carboxamide]	100 to 1000 nM
COc1ccc(NC(=O)C2(c3ccccc3C(C)C)CCC(=O)CC2)c(OC(F)F)n1 [Example 80, N-(2-(difluoromethoxy)-6-methoxypyridin-3-yl)-1-(2-isopropylphenyl)-4-oxocyclohexane-1-carboxamide]	10 to 100 nM
Cc1ccc(NC(=O)C2(c3ncccc3C(C)C)CC(CC(=O)O)C2)c(OC(F)F)n1 (stereo not drawn) [Example 48, 2-(3-((2-(difluoromethoxy)-6-methylpyridin-3-y1)carbamoyl)-3-(3-isopropylpyridin-2-yl)cyclobutyl)acetic acid]	10 to 100 nM
CCC1(O)CC(C(=O)Nc2ccc(C)nc2OC(F)F)(c2ccccc2C(C)C)C1 (stereo not drawn) [Example 52, N-(2-(difluoromethoxy)-6-methylpyridin-3-yl)-3-ethyl-3-hydroxy-1-(2-isopropylphenyl)cyclobutane-1-carboxamide]	10 to 100 nM
COc1ccc(NC(=O)[C@]2(c3ccccc3C(C)C)C[C@H](Cc3nnn[nH]3)C2)c(OC(F)F)n1 [Example 119, cis-3-((1H-tetrazol-5-yl)methyl)-N-(2-(difluoromethoxy)-6-methoxypyridin-3-yl)-1-(2-isopropylphenyl)cyclobutane-1-carboxamide]	10 to 100 nM
Cc1ccc(NC(=O)C2(c3ncccc3C(C)C)CC(O)C2)c(OC(F)F)n1 (mixture of isomers) [Example 57, N-(2-(difluoromethoxy)-6-methylpyridin-3-yl)-3-hydroxy-1-(3-isopropylpyridin-2-yl)cyclobutane-1-carboxamide]	10 to 100 nM
CC(C)Oc1cc(Cl)ncc1NC(=O)C1(c2ccccc2C(C)C)COC1 [Example 33, N-(6-chloro-4-isopropoxypyridin-3-yl)-3-(2-isopropylphenyl)oxetane-3-carboxamide]	10 to 100 nM
COc1ccc(NC(=O)C2(c3ccccc3C(C)C)CCC(S(N)(=O)=O)CC2)c(OC(F)F)n1 (stereo not drawn) [Example 97, N-(2-(difluoromethoxy)-6-methoxypyridin-3-yl)-1-(2-isopropylphenyl)-4-sulfamoylcyclohexane-1-carboxamide]	100 to 1000 nM
COc1ccc(NC(=O)C2(c3ccccc3C(C)C)CC(O)(C(F)(F)C(=O)O)C2)c(OC(F)F)n1 (single isomer, unassigned) [Example 54-isomer A, 2-(3-((2-(difluoromethoxy)-6-methoxypyridin-3-yl)carbamoyl)-1-hydroxy-3-(2-isopropylphenyl)cyclobutyl)-2,2-difluoroacetic acid]	< 10 nM
